In patent publication US20160185837A1 (Medimmune Limited, priority 2013, published 2016):
Like-named read-outs stand apart in the source and are kept apart here. Ends that are not written are not given here.

How the values were obtained:
cyno GLP-1r (cGLP-1r) = target: T1, cyno GLP-1r (cGLP-1r) (Macaca fascicularis, UniProt F8V479); assay: cAMP assay, cells expressing cyno GLP-1r, 4.2% cyno serum albumin; assay type: cell-based, cynomolgus monkey
T1 construct: expressed in transfected cells
From the text: In certain aspects, the assay can also be carried out in medium supplemented with serum albumin that corresponds to the receptor being tested, e.g., human serum albumin for testing cAMP activity at hGIPr or hGLP-1r, rat serum albumin for testing cAMP activity at rGIPr or rGLP-1r, and so on. […] All sample dilutions were made in duplicate.
A frozen cryo-vial of cells expressing the receptor of interest was thawed rapidly in a water-bath, transferred to pre-warmed assay media and spun at 240×g for 5 minutes. Cells were re-suspended in assay buffer at an optimized concentration (e.g., hGLP-1r and hGIPr cells at 0.5×10^5 cells/ml).
To this, 5 μL cell suspension was added and the plates incubated at room temperature for 30 minutes.
cAMP levels were measured using a commercially available cAMP dynamic 2 HTRF kit (Cisbio, Cat #62AM4PEJ), following the two step protocol as per manufacturer's recommendations. In brief; anti-cAMP cryptate (donor fluorophore) and cAMP-d2 (acceptor fluorophore) were made up separately by diluting each 1/20 in conjugate & lysis buffer provided in the kit. […] Data was transformed to % Delta F as described in manufacturer's guidelines and then transformed to percent activation of maximal native agonist response and analysed by 4-parameter logistic fit to determine EC50 values.

cyno GCGr (cGCGr) = assay: cAMP assay, cells expressing cyno GCGr, 4.2% cyno serum albumin; assay type: cell-based, cynomolgus monkey; details: culture medium containing 4.2% cyno serum albumin
From the text: In certain aspects, the assay can also be carried out in medium supplemented with serum albumin that corresponds to the receptor being tested, e.g., human serum albumin for testing cAMP activity at hGIPr or hGLP-1r, rat serum albumin for testing cAMP activity at rGIPr or rGLP-1r, and so on. Low protein binding 384-well plates (Greiner #781280) were used to perform eleven 1 in 5 serial dilutions of test samples that were made in assay medium. All sample dilutions were made in duplicate.
A frozen cryo-vial of cells expressing the receptor of interest was thawed rapidly in a water-bath, transferred to pre-warmed assay media and spun at 240×g for 5 minutes. Cells were re-suspended in assay buffer at an optimized concentration (e.g., hGLP-1r and hGIPr cells at 0.5×10^5 cells/ml). […]
cAMP levels were measured using a commercially available cAMP dynamic 2 HTRF kit (Cisbio, Cat #62AM4PEJ), following the two step protocol as per manufacturer's recommendations. […] Plates were incubated at room temperature for one hour and then read on an Envision (Perkin Elmer) using excitation wavelength of 320 nm and emission wavelengths of 620 nm & 665 nm. Data was transformed to % Delta F as described in manufacturer's guidelines and then transformed to percent activation of maximal native agonist response and analysed by 4-parameter logistic fit to determine EC50 values.

[1] = Extended pharmacokinetics, serum ELISA for protein (Fc) detection; assay type: in vivo, CD male rats; details: 1 mg/kg subcutaneously or intravenously, serum out to 168 hours
Protocol: More extended pharmacokinetic assays to determine protein stability and activity were performed as follows. CD male rats (n=3) were injected subcutaneously or intravenously with 1 mg/kg IP088 or GLP1a-Fc. Periodic serum samples were obtained out to 168 hours. The serum samples were subjected to ELISA for protein (Fc) detection by the following method. ELISA plates (Costar 3690) were coated with Mouse anti-human IgG (JCD-10) 1/500 in PBS (final concentration 1 μg/ml). […] was added to each well and the plates were incubated overnight at 4° C. Following washing with PBS-Tween (PBS-T), the plates were blocked with […] 1% BSA in PBS for 1 h at RT with gentle shaking. Following washing with PBS-T, standards, and dilutions of […] samples were added (50 μl/well), and the plate was incubated for 2 h at RT with gentle shaking. Following washing […] biotinylated mouse anti-human IgG (JCD-10) diluted 1/1000 in ELISA incubation buffer (final concentration 0.5 μg/ml) was added to each well and the plates were incubated for 1 h at RT with gentle shaking. Following washing […] of Streptavidin-HRP diluted 1/1000 in ELISA incubation buffer was added to each well, and the plates were incubated for 45 min at RT with gentle shaking. […]

T1 sequence (F8V479 24-463): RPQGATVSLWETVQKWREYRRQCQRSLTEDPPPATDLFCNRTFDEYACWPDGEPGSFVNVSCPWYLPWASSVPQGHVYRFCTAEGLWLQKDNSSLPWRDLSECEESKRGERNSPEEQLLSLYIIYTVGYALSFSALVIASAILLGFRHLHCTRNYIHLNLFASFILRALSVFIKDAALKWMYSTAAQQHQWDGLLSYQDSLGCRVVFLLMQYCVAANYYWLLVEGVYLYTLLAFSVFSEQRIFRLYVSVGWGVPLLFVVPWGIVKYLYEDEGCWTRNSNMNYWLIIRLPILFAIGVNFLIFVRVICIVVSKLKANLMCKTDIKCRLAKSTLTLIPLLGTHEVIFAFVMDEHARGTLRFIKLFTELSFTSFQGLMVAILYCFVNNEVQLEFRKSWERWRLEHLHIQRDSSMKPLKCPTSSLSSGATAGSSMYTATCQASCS

Molecule	EC50 (cyno GLP-1r (cGLP-1r)) [nM]	EC50 (cyno GCGr (cGCGr)) [nM]	EC50 (cyno GLP-1r (cGLP-1r); culture medium containing 4.2% cyno serum albumin, read-out: EC50 for cGLP-1r) [nM]	PK profile by Fc ELISA (Cmax, bioavailability, half-life), in words [1]
CCCCCCCCCCCCCCCC(=O)N[C@@H](CCC(=O)NCCCC[C@H](NC(=O)[C@H](C)NC(=O)[C@H](C)NC(=O)[C@H](CCC(N)=O)NC(=O)CNC(=O)[C@H](CCC(=O)O)NC(=O)[C@H](CC(C)C)NC(=O)[C@H](Cc1ccc(O)cc1)NC(=O)[C@H](CO)NC(=O)[C@H](CO)NC(=O)[C@@H](NC(=O)[C@H](CC(=O)O)NC(=O)[C@H](CO)NC(=O)[C@@H](NC(=O)[C@H](Cc1ccccc1)NC(=O)[C@@H](NC(=O)CNC(=O)[C@H](CCC(=O)O)NC(=O)[C@H](C)NC(=O)[C@@H](N)Cc1cnc[nH]1)[C@@H](C)O)[C@@H](C)O)C(C)C)C(=O)N[C@@H](CCC(=O)O)C(=O)N[C@@H](Cc1ccccc1)C(=O)N[C@H](C(=O)N[C@@H](C)C(=O)N[C@@H](Cc1c[nH]c2ccccc12)C(=O)N[C@@H](CC(C)C)C(=O)N[C@H](C(=O)N[C@@H](CCCNC(=N)N)C(=O)NCC(=O)N[C@@H](CCCNC(=N)N)C(=O)NCC(=O)O)C(C)C)[C@@H](C)CC)C(=O)O [liraglutide]	0.025	–	–	–
GLP1a-Fc: GLP-1 analogue-Fc (gamma4) fusion control; GLP-1 agonist; Peptide SEQ ID NO:62-Fc, SEQ ID NO:189 (HGEGTFTSDVSSYLEEQAAKEFIAWLVKGR; also: Fc (gamma4) fusion)	–	> 1000	0.011	equivalent PK profiles
